Earlier results in US10709686B2, “Methods for treating pulmonary fibrosis” (David Weinstein Consulting, Inc., priority 2018, dated 2020).

Legend:
[1] = target: T1, FK506 binding protein 4 (FKBP52) (Homo sapiens, UniProt Q02790)
T1 sequence (Q02790 1-459): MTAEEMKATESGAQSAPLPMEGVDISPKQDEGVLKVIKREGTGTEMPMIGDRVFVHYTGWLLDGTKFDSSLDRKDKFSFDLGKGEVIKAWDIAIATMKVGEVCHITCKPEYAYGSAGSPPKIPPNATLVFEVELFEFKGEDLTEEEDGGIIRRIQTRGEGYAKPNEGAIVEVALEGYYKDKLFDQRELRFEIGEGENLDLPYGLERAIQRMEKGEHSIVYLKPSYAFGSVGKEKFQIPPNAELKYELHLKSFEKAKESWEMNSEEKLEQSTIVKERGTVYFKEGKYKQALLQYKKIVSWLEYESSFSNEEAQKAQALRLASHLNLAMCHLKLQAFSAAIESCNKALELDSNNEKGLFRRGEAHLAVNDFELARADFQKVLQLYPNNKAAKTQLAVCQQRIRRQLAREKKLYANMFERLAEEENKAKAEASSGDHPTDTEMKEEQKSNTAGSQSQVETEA

FKBP52 = target: T2, FKBP52 (Homo sapiens, UniProt Q02790); settings: treatment of fibroblasts for 2 hours
T2 construct: endogenous in cells
T2 sequence (Q02790 1-459): T1 sequence (Q02790 1-459)

Question: For `CCC(C)(C)C(=O)C(=O)N1CCC[C@H]1C(=O)O` [RT175], which “Binding affinity to FKBP52” value [1] is on record?
Answer: Its value is “binds with high affinity”.

Question: What about the “Translocation of FKBP52 to the nucleus” value (FKBP52) of the same compound?
Answer: The value was “results in the translocation of FKBP52 to the nucleus”.
